Test results: publication PMC6277767, “Broad and Region-Specific Impacts of the Synthetic Cannabinoid CP 55,940 in Adolescent and Adult Female Mouse Brains” (Frontiers in Molecular Neuroscience, 2018)

Tested on: CD1 female mouse brain lipidome
Assay: Brain-region lipid levels (HPLC/MS/MS lipidomics) 2 h after single i.p. 3 mg/kg CP 55,940 vs vehicle
Format: in vivo
Design: N-arachidonoyl phenylalanine level, Mean / N-stearoyl tryptophan level, Mean / N-stearoyl proline level, Mean / N-stearoyl leucine level, Mean / N-stearoyl phenylalanine level, Mean / N-stearoyl serine level, Mean / N-stearoyl methionine level, Mean: unit: moles per gram
Details: cerebellum
Method: The Bloomington Institutional Animal Care and Use Committee of Indiana University reviewed and approved the animal procedures. Female mice from the CD1 strain were utilized to match our study examining THC’s effects on the brain lipidome ([Leishman et al., 2018]). Mice were given a single i.p. injection of either 3 mg/kg CP or 1:1:18 cremophor:ethanol:saline vehicle (please refer to the section “3 mg/kg CP Is Relevant for Synthetic Cannabinoid Abuse and Has Stronger Effects on the Female Mouse Brain Lipidome During Adolescence” for a justification of dose and use of female mice). Three different age groups were given injections: PND 35 and PND 50 adolescents, and adult mice (PND 113). At least eight mice in each age group received CP and at least eight received vehicle. Matching the THC study time course ([Leishman et al., 2018]), mice were sacrificed via rapid decapitation 2 h after injection. Brains were immediately removed and flash-frozen in liquid nitrogen, and then stored at -80°C until dissections were performed. Brains were dissected on an ice-cold dissection plate into the following regions: STR, HIPP, CER, THAL, CTX, HYP, MID, and STEM. These abbreviations for these brain areas will be used exclusively when discussing the results generated by these specific dissections. Each dissected area was immediately placed in liquid nitrogen and then stored at -80°C until used for lipid extraction.
Tissue extracts were performed as previously described ([Bradshaw et al., 2006]; [Stuart et al., 2013]; [Raboune et al., 2014]; [Leishman et al., 2016a],[b], [2017], [2018]). First, samples were shock frozen in liquid nitrogen, weighed, and transferred to a centrifuge tube. The mass of the largest sample was multiplied by 50 to determine how many milliliters of HPLC-grade methanol (Fisher, Fair Lawn, NJ, United States) to add. Then, samples were spiked with 500 pmol deuterium-labeled NAGly (d8NAGly; Cayman Chemical, Ann Arbor, MI, United States). Samples were placed on ice in darkness for 2 h then individually homogenized and centrifuged at 19,000 × g for 20 min at 20°C. Supernatants were diluted with HPLC water (purified in house) to make a solution of 75% water, 25% supernatant. Lipids were partially purified on C18 solid phase extraction columns (Agilent, Palo Alto, CA, United States). A series of four elutions with 1.5 mL of 60%, 75%, 85%, and 100% methanol were collected ([Stuart et al., 2013]; [Leishman et al., 2016a],[b], [2018]).
As previously described ([Bradshaw et al., 2006]; [Tan et al., 2006]; [Smoum et al., 2010]; [Stuart et al., 2013]; [Tortoriello et al., 2013]; [Raboune et al., 2014]; [Leishman et al., 2016a],[b], [2017], [2018]), samples were analyzed using an Applied Biosystems API 3000 triple quadrupole mass spectrometer with electrospray ionization (Foster City, CA, United States). Using an Agilent XDB-C18 reversed phase analytical column and optimized mobile phase gradients, 20 μL from each elution were chromatographed. Two Shimadzu 10ADvp pumps (Columbia, MD, United States) provided the pressure for gradient elution. Mobile phase A: 20% methanol, 80% water (v/v) and 1 mM ammonium acetate (Sigma, St. Louis, MO, United States). Mobile phase B: 100% methanol, 1 mM ammonium acetate. Every method run began with 0% mobile phase B, reached 100% mobile phase B flowing at 0.2 mL/min, and gradually returned to 0% mobile phase B.
This screening library will be referred to as the lipidome when discussing data from this study. HPLC/MS/MS data were analyzed using Analyst software (Applied Biosystems) ([Bradshaw et al., 2006]; [Tan et al., 2006]; [Stuart et al., 2013]; [Tortoriello et al., 2013]; [Raboune et al., 2014]; [Leishman et al., 2016a],[b], [2017], [2018]). Chromatograms (Supplementary Figure 3) were generated by determining the retention time of analytes from the analytical column with a [M-1] or [M+1] parent peak and a fragmentation peak corresponding to the programmed values. […]

[1] = PND 50 female mice, 3 mg/kg CP 55,940
[2] = WT adult female mice, 3mg/kg CP 55,940

SMILES: CCCCCCC(C)(C)c1ccc([C@@H]2C[C@H](O)CC[C@H]2CCCO)c(O)c1 [CP 55,940]
- N-arachidonoyl phenylalanine level, Mean [1]: 2.55E-13
- N-arachidonoyl proline level, Mean [1]: BDL
- N-arachidonoyl serine level, Mean [1]: 4.25E-12
- N-arachidonoyl taurine level, Mean [1]: 1.97E-11
- N-arachidonoyl tryptophan level, Mean [1]: BDL
- N-arachidonoyl tyrosine level, Mean [1]: 2.66E-13
- N-docosahexaenoyl GABA level, Mean [1]: 9.21E-13
- N-docosahexaenoyl ethanolamine level, Mean [1]: 3.09E-11
- N-docosahexaenoyl glycine level, Mean [1]: 4.01E-13
- N-docosahexaenoyl leucine level, Mean [1]: 2.06E-13
- N-docosahexaenoyl phenylalanine level, Mean [1]: 2.68E-13
- N-docosahexaenoyl proline level, Mean [1]: BDL
- N-docosahexaenoyl serine level, Mean [1]: 8.95E-12
- N-docosahexaenoyl tryptophan level, Mean [1]: BDL
- N-docosahexaenoyl tyrosine level, Mean [1]: 6.76E-13
- N-linoleoyl GABA level, Mean [1]: 6.58E-13
- N-linoleoyl alanine level, Mean [1]: 7.79E-14
- N-linoleoyl ethanolamine level, Mean [1]: 3.74E-11
- N-linoleoyl glycine level, Mean [1]: 1.39E-13
- N-linoleoyl leucine level, Mean [1]: 5.12E-14
- N-linoleoyl proline level, Mean [1]: BDL
- N-linoleoyl serine level, Mean [1]: 5.53E-11
- N-linoleoyl tryptophan level, Mean [1]: BDL
- N-linoleoyl tyrosine level, Mean [1]: BDL
- N-nervonoyl valine level, Mean [1]: BDL
- N-oleoyl GABA level, Mean [1]: 2.42E-12
- N-oleoyl alanine level, Mean [1]: 9.8E-13
- N-oleoyl dopamine level, Mean [1]: BDL
- N-oleoyl ethanolamine level, Mean [1]: 6.07E-11
- N-oleoyl glycine level, Mean [1]: 1.13E-12
- N-oleoyl leucine level, Mean [1]: 5.63E-13
- N-oleoyl methionine level, Mean [1]: 2.55E-13
- N-oleoyl phenylalanine level, Mean [1]: 1.01E-12
- N-oleoyl proline level, Mean [1]: BDL
- N-oleoyl serine level, Mean [1]: 1.05E-10
- N-oleoyl tryptophan level, Mean [1]: BDL
- N-oleoyl tyrosine level, Mean [1]: 3.12E-13
- N-oleoyl valine level, Mean [1]: 4.78E-14
- N-palmitoyl GABA level, Mean [1]: 5.13E-12
- N-palmitoyl alanine level, Mean [1]: 2.64E-12
- N-palmitoyl ethanolamine level, Mean [1]: 5.07E-11
- N-palmitoyl glycine level, Mean [1]: 3.72E-12
- N-palmitoyl leucine level, Mean [1]: 1.13E-12
- N-palmitoyl methionine level, Mean [1]: 9.79E-13
- N-palmitoyl phenylalanine level, Mean [1]: 1.27E-12
- N-palmitoyl proline level, Mean [1]: BDL
- N-palmitoyl serine level, Mean [1]: 1.43E-11
- N-palmitoyl tryptophan level, Mean [1]: BDL
- N-palmitoyl tyrosine level, Mean [1]: 6.09E-13
- N-palmitoyl valine level, Mean [1]: 1.77E-13
- N-stearoyl GABA level, Mean [1]: 5.74E-12
- N-stearoyl alanine level, Mean [1]: 1.16E-12
- N-stearoyl ethanolamine level, Mean [1]: 2.6E-11
- N-stearoyl glycine level, Mean [1]: 5.05E-13
- N-stearoyl leucine level, Mean [1]: 8.15E-13
- N-stearoyl methionine level, Mean [1]: 4.91E-13
- N-stearoyl phenylalanine level, Mean [1]: 1.17E-12
- N-stearoyl proline level, Mean [1]: BDL
- N-stearoyl serine level, Mean [1]: 3.32E-11
- N-stearoyl tryptophan level, Mean [1]: BDL
- N-stearoyl tyrosine level, Mean [1]: 1.08E-13
- Oleic acid level, Mean [1]: 2.36E-10
- PGE2 level, Mean [1]: 5.14E-11
- THC level, Mean [1]: BDL
- 2-arachidonoyl glycerol level, Mean [2]: 4.32E-09
- 2-linoleoyl glycerol level, Mean [2]: 2.44E-10
- 2-oleoyl glycerol level, Mean [2]: 1.94E-09
- 2-palmitoyl glycerol level, Mean [2]: 1.01E-10
- 6-ketoPGF1α level, Mean [2]: 2.25E-11
- Arachidonic acid level, Mean [2]: 7.51E-10
- Linoleic acid level, Mean [2]: 6.75E-10
- N-arachidonoyl GABA level, Mean [2]: 1.22E-11
- N-arachidonoyl ethanolamine level, Mean [2]: 1.33E-11
- N-arachidonoyl glycine level, Mean [2]: 1.43E-13
- N-arachidonoyl phenylalanine level, Mean [2]: 4.52E-14
- N-arachidonoyl taurine level, Mean [2]: 6.54E-11
- N-docosahexaenoyl GABA level, Mean [2]: 8.3E-12
- N-docosahexaenoyl ethanolamine level, Mean [2]: 2.78E-11
- N-docosahexaenoyl glycine level, Mean [2]: 7.91E-14
- N-docosahexaenoyl leucine level, Mean [2]: 1.51E-12
- N-docosahexaenoyl phenylalanine level, Mean [2]: 3.04E-14
- N-linoleoyl GABA level, Mean [2]: 7.7E-12
- N-linoleoyl alanine level, Mean [2]: 2.18E-13
- N-linoleoyl ethanolamine level, Mean [2]: 1.87E-11
- N-linoleoyl glycine level, Mean [2]: 6.99E-14
- N-linoleoyl serine level, Mean [2]: 1.99E-11
- N-oleoyl GABA level, Mean [2]: 1.65E-11
- N-oleoyl alanine level, Mean [2]: 2.34E-12
- N-oleoyl ethanolamine level, Mean [2]: 2.04E-10
- N-oleoyl glycine level, Mean [2]: 2.49E-13
- N-oleoyl leucine level, Mean [2]: 1.06E-12
- N-oleoyl phenylalanine level, Mean [2]: 6.03E-13
- N-oleoyl serine level, Mean [2]: 1.05E-10
- N-oleoyl tyrosine level, Mean [2]: 8.96E-13
- N-oleoyl valine level, Mean [2]: 2.42E-14
- N-palmitoyl GABA level, Mean [2]: 2.25E-11
- N-palmitoyl alanine level, Mean [2]: 1.61E-12
- N-palmitoyl ethanolamine level, Mean [2]: 6.47E-11
- N-palmitoyl glycine level, Mean [2]: 1.24E-12
- N-palmitoyl leucine level, Mean [2]: 1.34E-12
- N-palmitoyl methionine level, Mean [2]: 6.89E-12
- N-palmitoyl phenylalanine level, Mean [2]: 1.87E-13
